Measured values taken from PMC6359803, “Inhibition of inflammatory response in human keratinocytes by magnetic nanoparticles functionalized with PBP10 peptide derived from the PIP2-binding site of human plasma gelsolin” (Journal of Nanobiotechnology, 2019).
Like-named read-outs stand apart in the source and are kept apart here. Ends that are not written are not given here. Peptide text beside a SMILES is read from it. * marks the point of attachment. RhodamineB = CCN(CC)c1ccc2c(-c3ccccc3C(=O)*)c3ccc(=[N+](CC)CC)cc-3oc2c1

Experiments:
[1] = MTT viability / metabolic activity assay; type: cell-based, human; settings: human
Description: (§1) The viability and metabolic activity of cells were measured using a microculture tetrazolium test (MTT; 3-(4,5-dimethylthiazol-2-yl)-2,5-diphenyltetrazolium bromide) as described previously. HaCaT cells were seeded at a density of 5 × 10^4 cells/well in transparent 96-well plates and cultured until ~ 85% confluence; after that medium was replaced with serum-free medium and cells were serum starved for another 12 h. To determine the non-toxic concentrations, the peptides and their magnetic derivatives in concentrations ranging from 1 to 50 µg/mL were added to each well and incubated for 24 h at 37 °C under 5% CO2. The optical density at 490 nm was assessed after 2 h incubation of plates with MTT solution (5 mg/mL) and the addition of formazan salt in dimethyl sulfoxide (DMSO). The absorbance value obtained in cultures of control cells (with solvents alone) was taken as 100%. The average of all the experiments is shown as cell viability percentage in comparison to the control.

[2] = tested on: HaCaT cells; experiment: MTT viability / metabolic activity assay; type: cell-based, human; settings: 24 h
Description: as §1

[3] = tested on: HaCaT cells; experiment: IL-8 release (ELISA); type: cell-based, human; settings: 24 h
Description: In order to assess release of interleukin-8 (IL-8) from stimulated keratinocytes, 5 × 10^4 HaCaT cells were treated with agents at concentrations of 2, 5 and 10 µg/mL and stimulated with 1 µg/mL LPS/LTA. The medium from LPS/LTA-treated cells was harvested after 24 h of incubation and the level of IL-8 was evaluated using an IL-8 Human ELISA Kit (Thermo Fisher Scientific).

[4] = tested on: A549 cells; experiment: Cell stiffness by atomic force microscopy (AFM) indentation; type: cell-based, human; settings: 1 µg/mL LPS 24 h, agent 5 µg/mL
Description: The stiffness of cells after 24 h stimulation with 1 µg/mL LPS was measured by indentation using atomic force microscopy (Nanowizard 4 Bioscience AFM, JPK Instruments, Germany). Adenocarcinomic human alveolar basal epithelial cells (A549 ATCC® CCL-185™) were cultured in high-glucose DMEM supplemented with 10% FBS at 37 °C with 5% CO2, placed on Ø 35 mm Petri dishes and allowed to attach and spread for 24 h before simultaneous stimulation with 1 µg/mL LPS (E. coli 026:B6) and treatment with 5 µg/mL of PBP10 or PBP10-based nanosystems. Immediately before the experiment, cells were placed in a CO2-independent buffer (Thermo Fisher Scientific, USA) to prevent changes in pH of the cellular environment during analysis. Elasticity measurements were taken with AFM working in force spectroscopy mode in liquid conditions, and cantilevers (ORC8, Bruker) with a spring constant of 0.1 N/m were used. From each tested cell, up to 64 force-indentation curves were collected in a grid of 8 × 8 pixels corresponding to a scan area of 10 × 10 µm with a maximal force of 2 nN. For indentation measurements, more than 1100 force-distance curves were recorded for each group from at least ten different cells. To determine the apparent Young’s modulus of different cells, force-indentation curves were fit to the Hertz contact model.

[5] = tested on: E. coli RS218; experiment: Killing assay (CFU counting); type: cell-based, Escherichia coli; settings: E. coli RS218, 1 h, doses 2-10 µg/mL, dose-dependent
Description: (§2) To assess the bactericidal activity of PBP10-derived peptides and PBP10-containing nanosystems against E. coli and S. aureus bacterial strains, a killing assay based on counting colony forming units (CFU) was performed. For this purpose, E. coli and S. aureus strains were grown to mid-log phase at 37 °C, re-suspended in PBS, brought to 10^8 CFU/ml (which corresponds to 0.5 OD at a wavelength 600 nm) and diluted 1:100 to obtain sample containing approx. 10^6 CFU/mL. Bacteria were then added to PBS containing different concentrations of PBP10, RhB-PBP10 and RhB-PBP10-Cys and their nanosystems at doses of 2, 5 and 10 µg/mL. After 1 h of incubation at 37 °C, the plates were transferred to ice and suspensions were diluted 10- to 1000-fold in PBS. Then, 10 μL aliquots were spotted on agar plates for overnight culture at 37 °C in order to determine CFUs.

[6] = tested on: S. aureus A1; experiment: Killing assay (CFU counting); type: cell-based, Staphylococcus aureus; settings: S. aureus A1, 1 h, doses 2-10 µg/mL, dose-dependent
Description: as §2

[7] = tested on: HaCaT cells; experiment: Nitric oxide assay (nitrite, Griess reagent); type: cell-based, human; settings: 1 µg/mL LTA-stimulated HaCaT, 10 µg/mL agent, 24 h
Description: The nitric oxide assay was performed as described previously and the quantity of nitrite in the culture medium was measured as an indicator of NO production. Amounts of nitrite, a stable metabolite of NO, were measured using the Griess reagent (1% sulfanilamide and 0.1% naphthylethylenediamine dihydrochloride in 2.5% phosphoric acid). Briefly, 5 × 10^4 HaCaT cells were seeded in transparent 96-well plates and cultured until 85% confluence was reached. After that, cells were washed with PBS, and agents at final concentrations of 2, 5 and 10 µg/mL were added to each well. Simultaneously, keratinocytes were stimulated with 1 µg/mL LPS (E. coli 026:B6), 1 µg/mL LTA (from Staphylococcus aureus) or heat-inactivated suspensions of E. coli or S. aureus (~ 10^6 CFU/mL) and incubated in serum-free medium for 24 h. Next, 50 µL of cell culture medium was mixed with 50 µL of Griess reagent, incubated at room temperature for 15 min, and the absorbance at 540 nm was measured in a microplate reader. Fresh culture medium was used as a blank in every experiment.

[8] = tested on: HaCaT cells; experiment: ROS formation (DFCH-DA fluorescence); type: cell-based, human; settings: 1 µg/mL LPS-stimulated HaCaT, 10 µg/mL agent, 24 h
Description: The generation of reactive oxygen species from stimulated HaCaT cells was measured using 2′,7′-dichlorofluorescein diacetate (DFCH-DA) as the fluorescent probe. For this purpose, 5 × 10^4 of HaCaT cells, cultured until ~ 85% confluence and incubated simultaneously with peptides or their magnetic derivatives at concentrations of 2, 5 and 10 µg/mL and with 1 µg/mL LPS/LTA or heat-inactivated bacteria for 24 h. Next, cells were washed twice with PBS, and DFCH-DA in PBS at the concentration of 20 µM was added. Fluorescence was measured for 90 min immediately after the addition of the dye at excitation/emission wavelengths of 488/535 nm.

[9] = Fluorescence of unbound peptide after magnetic separation; type: physicochemical; settings: fluorescence relative to 1 mg/mL free peptide
Description: PBP10-containing nanosystems were obtained by non-covalent bonding including electrostatic interactions or chemisorption of thiol groups to the gold surface. Nanoparticles (MNP@NH2 or MNP@Au) were dispersed in PBS to obtain solutions of 10 mg/mL concentration. Then nanoparticles were diluted to the concentration of 1 mg/mL and were mixed with the appropriate amount (1:1 volume ratio) of PBP peptide or PBP modified by cysteine and rhodamine (1 mg/mL solutions in PBS buffer). Prepared solutions were incubated for 2 days (nucleation) and used for further investigations. In order to avoid the loss of agents during the preparation process, no further purification of nanosystems was performed. To evaluate the efficiency of peptide attachment, fluorescence of unbound PBP10 peptides in solutions after magnetic separation of nanosystems was measured.

## QRLFQVKGRR [PBP10, QRLFQVKGRR]
[1]
  viability at 24 h, 10 µg/mL: 83 to 101%
[2]
  IC50: > 50 µg/mL

## Lipopolysaccharide from Escherichia coli O26:B6 [LPS]
[3]; 1 µg/mL LPS-stimulated HaCaT
  IL-8 level: 504.9 ± 49.39 pg/mL
[4]; indentation depth 1 µm
  Young's modulus: 3.1 ± 0.08 kPa
[4]; indentation depth 300 nm
  Young's modulus: 4.3 ± 0.07 kPa

## CCN(CC)c1ccc2c(-c3ccccc3C(=O)N[C@@H](CCC(N)=O)C(=O)N[C@@H](CCCNC(=N)N)C(=O)N[C@@H](CC(C)C)C(=O)N[C@@H](Cc3ccccc3)C(=O)N[C@@H](CCC(N)=O)C(=O)N[C@H](C(=O)N[C@@H](CCCCN)C(=O)NCC(=O)N[C@@H](CCCNC(=N)N)C(=O)N[C@@H](CCCNC(=N)N)C(=O)O)C(C)C)c3ccc(=[N+](CC)CC)cc-3oc2c1 [RhB-PBP10, rhodamine B-QRLFQVKGRR] (RhodamineB-QRLFQVKGRR-OH; N-terminus and C-terminus assumed)
[5]
  decrease of bacterial viability: more than 95%
[6]
  decrease of bacterial viability: more than 95%
[7]
  NO production (% of untreated stimulated control): 63.16 ± 14.01%
[8]
  ROS production (% of untreated stimulated control): 30.33 ± 3.31%

## lipoteichoic acid from Staphylococcus aureus [LTA]
[3]; 1 µg/mL LTA-stimulated HaCaT
  IL-8 level: 749.2 ± 55.81 pg/mL

## CCN(CC)c1ccc2c(-c3ccccc3C(=O)N[C@@H](CCC(N)=O)C(=O)N[C@@H](CCCNC(=N)N)C(=O)N[C@@H](CC(C)C)C(=O)N[C@@H](Cc3ccccc3)C(=O)N[C@@H](CCC(N)=O)C(=O)N[C@H](C(=O)N[C@@H](CCCCN)C(=O)NCC(=O)N[C@@H](CCCNC(=N)N)C(=O)N[C@@H](CCCNC(=N)N)C(=O)N[C@@H](CS)C(=O)O)C(C)C)c3ccc(=[N+](CC)CC)cc-3oc2c1 [RhB-PBP10-Cys] (RhodamineB-QRLFQVKGRRC-OH; N-terminus and C-terminus assumed)
[1]; 10 µg/mL, 24 h, control = 100%, read-out: viability of HaCaT cells
  viability at 24 h, 10 µg/mL: 80 ± 6.6%
[5]
  decrease of bacterial viability: more than 95%
[6]
  decrease of bacterial viability: more than 95%
[9]
  % of remaining peptide (unbound) in solution after magnetic separation: ≤ 5%
